{"source": "patent US5846944A", "about": "(priority 1997, dated 1998)", "origin": "cited, not measured here", "system": "hypercholesterolemic atherosclerosis, New Zealand White rabbits", "conditions": "cited from earlier work"}
{"smiles": "CC(C)(Sc1cc(C(C)(C)C)c(O)c(C(C)(C)C)c1)Sc1cc(C(C)(C)C)c(O)c(C(C)(C)C)c1", "note": "[Probucol]", "values": [{"measurement": "reduction of hypercholesterolemic atherosclerosis", "setting": "Probucol 0.5% in the diet (equivalent to 250 mg/Kg), 0.5% cholesterol diet", "result": "up to 43%"}, {"measurement": "total cholesterol in the bloodstream", "setting": "Probucol 0.5% in the diet, 0.5% cholesterol diet", "result": "did not reduce the total cholesterol"}, {"measurement": "effect on reducing atherosclerosis", "setting": "Probucol, depending upon the extent of the hypercholesterolemia", "result": "15-45%"}]}
